The results in this text go back to publication PMC8286840, “Identifying SARS-CoV-2 antiviral compounds by screening for small molecule inhibitors of Nsp3 papain-like protease” (Biochemical Journal, 2021).

Molecules are shown by their SMILES. Where a name gives a salt, the structure may show the parent alone. Read-outs that look alike come from different tables or passages of the source. Where a SMILES comes first, the peptide text is derived from it. The star is where a group is joined. Cbz = O=C(OCc1ccccc1)*; CH2F = FC*

The target in test [1] is T1, SARS-CoV-2 PLpro (nsp3 1564–1878) (Severe acute respiratory syndrome coronavirus 2, UniProt P0DTD1). In words: biochemical. Details: FRET-quenched peptide (Pro3) cleavage by PLpro, 10 min pre-incubation, slope over 20 min, normalised to no-compound control. The settings on record: low concentration screen, read-out: % of control remaining.
In test [2] the target is T1, SARS-CoV-2 PLpro (nsp3 1564–1878). In words: biochemical. Details: FRET-quenched peptide (Pro3) cleavage by PLpro, 10 min pre-incubation, slope over 20 min, normalised to no-compound control. As to conditions: high concentration screen, read-out: % of control remaining.

In the case of `O=c1[nH]c2ccccc2n1CCN1CCN(c2cccc(C(F)(F)F)c2)CC1` [1-(2-{4-[3-(trifluoromethyl)phenyl]-1-piperazinyl}ethyl)-1,3-dihydro-2H-benzimidazol-2-one], in test [1] (Well no.=5866), the remaining activity at 1.25 µM amounted to 103%. In addition, in test [2] (Well no.=5866), the remaining activity at 3.75 µM is 97.9%.
Turning to `CCCCC/C=C/C/C=C/C/C=C/C/C=C/CCCCCC(=O)O` [Adrenic acid (22:4 n-6)], the remaining activity at 1.25 µM in test [1] (Well no.=4253) was 105%. Moreover, the remaining activity at 3.75 µM in test [2] (Well no.=4253) is 98.5%.
With `COC(=O)C[C@H](NC(=O)[C@H](C)NC(=O)[C@@H](NC(=O)OCc1ccccc1)C(C)C)C(=O)CF` [Z-VAD(OMe)-FMK] (Cbz-Val-Ala-Asp(OMe)-CH2F), the remaining activity at 1.25 µM worked out at 101% in test [1] (Well no.=7116) and 100% in test [1] (Well no.=8598). Also, the remaining activity at 3.75 µM in test [2] (Well no.=7116) was found to be 94.5%; in test [2] (Well no.=8598), 100%.
`NC(=O)CC[C@H](N)C(=O)O` [L-Glutamine]: the remaining activity at 1.25 µM in test [1] (Well no.=715) turned out to be 96.1%; in test [1] (Well no.=6899) it was 93.9%; in test [1] (Well no.=7743) it was 102%. Moreover, the remaining activity at 3.75 µM was determined as 93.2% in test [2] (Well no.=715), 92.3% in test [2] (Well no.=6899) and 104% in test [2] (Well no.=7743).
`CCc1cc(/C(C)=N/OCc2ccc(C3CCCCC3)c(C(F)(F)F)c2)ccc1CN1CC(C(=O)O)C1` [Siponimod]: the remaining activity at 1.25 µM in test [1] (Well no.=6669) is 97.7%. The remaining activity at 3.75 µM in test [2] (Well no.=6669) is 93.3%.
On to `C#C[C@]1(O)CC[C@H]2[C@@H]3CCC4=CC(=O)CC[C@@H]4[C@H]3CC[C@@]21C` [Norethindrone], for which the remaining activity at 1.25 µM in test [1] (Well no.=2013) amounted to 96.6%. In test [2] (Well no.=2013), the remaining activity at 3.75 µM was found to be 96.6%.
In the case of `O=C1C[C@@H](c2ccc(O)cc2)Oc2cc(O)cc(O)c21` [Naringenin], in test [1] (Well no.=3326), the remaining activity at 1.25 µM was 96.4%. For the same molecule, the remaining activity at 3.75 µM in test [2] (Well no.=3326) worked out at 98.3%.
Regarding `NC(N)=Nc1nc(CSCC/C(N)=N/S(N)(=O)=O)cs1` [FAMOTIDINE], the remaining activity at 1.25 µM is 103% in test [1] (Well no.=471), 101% in test [1] (Well no.=1740) and 104% in test [1] (Well no.=6622). Further, the remaining activity at 3.75 µM is 104% in test [2] (Well no.=471), 101% in test [2] (Well no.=1740) and 106% in test [2] (Well no.=6622).
Take `O=c1[nH]cnc2c1ncn2[C@@H]1O[C@H](CO)[C@@H](O)[C@H]1O` [Inosine]: the remaining activity at 1.25 µM was found to be 92.9% in test [1] (Well no.=5250), 105% in test [1] (Well no.=6147) and 92.8% in test [1] (Well no.=8835). The remaining activity at 3.75 µM in test [2] (Well no.=5250) is 92.9%; in test [2] (Well no.=6147), 100%; in test [2] (Well no.=8835) it was 89.2%.
`CCOCC(O)COc1ccc(NC(=O)CC[S+](C)C)cc1` (stereo not shown) [Suplatast tosylate]: in test [1] (Well no.=4714), the remaining activity at 1.25 µM stood at 107%. Further, the remaining activity at 3.75 µM in test [2] (Well no.=4714) is 106%.
For the molecule `NCCc1c[nH]c2ccccc12` [Tryptamine], in test [1] (Well no.=7365), the remaining activity at 1.25 µM is 97.9%. In addition, the remaining activity at 3.75 µM in test [2] (Well no.=7365) is 99.2%.
For `CCCn1c(=O)c2[nH]c(-c3ccc(OCC(=O)Nc4ccc(C#N)cc4)cc3)nc2n(CCC)c1=O` [MRS 1754], the values for the remaining activity at 1.25 µM in test [1] (Well no.=788) and in test [1] (Well no.=8407) were 97.4% and 101%, respectively. Moreover, the remaining activity at 3.75 µM in test [2] (Well no.=788) amounted to 97.6%; in test [2] (Well no.=8407), 95.8%.
With `CC1COc2c(N3CCN(C)CC3)c(F)cc3c(=O)c(C(=O)O)cn1c23` (stereo not shown) [Ofloxacin], the remaining activity at 1.25 µM in test [1] (Well no.=898) is 106%; in test [1] (Well no.=2047) it was 104%. Besides, the remaining activity at 3.75 µM was 105% in test [2] (Well no.=898) and 104% in test [2] (Well no.=2047).
For `C=CC(=O)Nc1cccc(Oc2nc(Nc3ccc(N4CCN(C)CC4)cc3OC)ncc2Cl)c1` [WZ4002], the remaining activity at 1.25 µM in test [1] (Well no.=4713) worked out at 107%. Also, the remaining activity at 3.75 µM in test [2] (Well no.=4713) stood at 106%.
Turning to `CC(C)(C)C(=O)Oc1ccc(S(=O)(=O)Nc2ccccc2C(=O)NCC(=O)O)cc1` [sodium ({2-[({4-[(2,2-dimethylpropanoyl)oxy]phenyl}sulfonyl)amino]benzoyl}amino)acetate hydrate], the remaining activity at 1.25 µM in test [1] (Well no.=5452) was 95.1%. The remaining activity at 3.75 µM in test [2] (Well no.=5452) stood at 101%.
With `O=C(O)C1CCCCN1` (stereo not shown) [Pipecolic acid], in test [1] (Well no.=6929), the remaining activity at 1.25 µM amounted to 103%. Further, in test [2] (Well no.=6929), the remaining activity at 3.75 µM is 102%.
As to `COC(=O)/C=C/c1cc(O)ccc1O` [2,5-Dihydroxycinnamic acid methyl ester], the remaining activity at 1.25 µM in test [1] (Well no.=495) came out at 103%. For the same molecule, the remaining activity at 3.75 µM in test [2] (Well no.=495) was found to be 106%.
With `CCCCCCCC/C=C\C/C=C\C/C=C\CCCC(=O)O` [5(Z), 8(Z), 11(Z)-Eicosatrienoic Acid], the remaining activity at 1.25 µM was determined as 104% in test [1] (Well no.=4303) and 98.9% in test [1] (Well no.=4594). For the same molecule, the remaining activity at 3.75 µM in test [2] (Well no.=4303) turned out to be 103%; in test [2] (Well no.=4594), 100%.
As for `CC(C)NC(C)Cc1ccc(I)cc1` (stereo not shown) [Iofetamine hydrochloride], the remaining activity at 1.25 µM in test [1] (Well no.=1017) amounted to 100%. Besides, in test [2] (Well no.=1017), the remaining activity at 3.75 µM worked out at 105%.
Consider `COC(=O)[C@H]1[C@H]2C[C@H]3c4[nH]c5cc(OC)ccc5c4CCN3C[C@H]2C[C@@H](OC(=O)c2cc(OC)c(OC)c(OC)c2)[C@@H]1OC` [(-)-Isoreserpine], for which, in test [1] (Well no.=3246), the remaining activity at 1.25 µM was 102%. For the same molecule, in test [2] (Well no.=3246), the remaining activity at 3.75 µM is 100%.
As to `CCc1ccc(N(CC(C)C)S(=O)(=O)c2ccc(OCC3CCOCC3)c(CO)c2)cc1` [GSK2981278], the remaining activity at 1.25 µM in test [1] (Well no.=8561) came to 105%. In addition, in test [2] (Well no.=8561), the remaining activity at 3.75 µM came to 101%.
As to `O=C(c1cn(Cc2cncn2Cc2ccc(Br)cc2)cc1-c1cccc2ccccc12)N1CCOCC1` [LB42708], in test [1] (Well no.=8766), the remaining activity at 1.25 µM is 99.3%. In addition, the remaining activity at 3.75 µM in test [2] (Well no.=8766) was 91.4%.
For `CN(C)CCN1C(=O)c2cccc3cc(N)cc(c23)C1=O` [Amonafide], the remaining activity at 1.25 µM in test [1] (Well no.=5195) was 96.9%. Moreover, in test [2] (Well no.=5195), the remaining activity at 3.75 µM is 96.7%.
On to `CCCCCCCC/C=C\CCCCCCCC(=O)OC[C@@H](O)COP(=O)(O)O` [Lysophosphatidic acid], for which the remaining activity at 1.25 µM in test [1] (Well no.=4497) is 97.9%. The remaining activity at 3.75 µM in test [2] (Well no.=4497) came out at 105%.
For `COc1cc(Br)c(S(=O)(=O)Nc2ccc(Cl)c(O[C@@H]3CCN(C)C3)c2)cc1OC` [2-bromo-N-(4-chloro-3-{[(3R)-1-methyl-3-pyrrolidinyl]oxy}phenyl)-4,5-dimethoxybenzenesulfonamide], the remaining activity at 1.25 µM in test [1] (Well no.=5501) is 99.8%. Besides, the remaining activity at 3.75 µM in test [2] (Well no.=5501) is 105%.
